Source: patent US10703796B2, “CD44v6-derived cyclic peptides for treating cancers and angiogenesis related diseases” (AMCURE GMBH, priority 2014, dated 2020)
Bridges are numbered along the chain shown (N, C = ends). Where no end group is shown, it is not given here. [ ]: non-standard residue; d: D form.

How the values were obtained:
Assay type in all cases: cell-based, human
[1] = tested on: Erk; assay: HGF-induced activation of Erk in Panc1 cells (blot of activated Erk vs total Erk); conditions: peptide 30 nM for 5 min at 37° C. prior to HGF 10 ng/ml for 5 min
Protocol: (§1) Human adenocarcinoma cells, Panc1, were seeded at 2×10^5 cells per well in a 6-well plate. The day after seeding the cells, they were starved for 24 h. The following day, the cells were treated as indicated with either alga1 or D3alga1, a control peptide (N-A-A-A-E (SEQ ID NO: 37)) at a concentration of 30 nM for 5 min at 37° C. prior to induction with HGF (10 ng/ml) at 37° C. for 5 min. Results are given in FIG. 3 (A: alga1; B: D3alga1).
(§2) Human adenocarcinoma cells, Panc1, were seeded at 2×10^5 cells per well in a 6-well plate. The day after seeding, the cells were starved for 24 h. The following day, the cells were treated as indicated with either D1alga1, D2alga1 or D3alga1, a human CD44v6 14mer (h14mer) or control peptide (N-A-A-A-E (SEQ ID NO: 37)) at a concentration of 30 nM for 5 min at 37° C. prior to induction with HGF (10 ng/ml) at 37° C. for 5 min.

[2] = tested on: c-Met; assay: HGF-induced activation of c-Met in Panc1 cells (blot of activated Met vs total Met); conditions: peptide 30 nM for 5 min at 37° C. prior to HGF 10 ng/ml for 5 min
Protocol: as §1, §2

[3] = tested on: Panc 1 cells; assay: Wound healing assay, Example 9 (FIG. 15); conditions: 500 nM, HGF 100 ng/ml, photos up to 48 hours after induction
Protocol: Cell migration is connected to angiogenesis where cells need to migrate in order to form new blood vessels. Angiogenesis is related to cancer metastasis.
Panc 1 cells were seeded in 6-well plates at a concentration of 3×10^5 cells per well and were allowed to adhere and form a confluent monolayer. After a starving period of 24 hours, a scratch was inserted using a sterile pipette tip. Medium was aspirated to remove scratched cells and replaced by new starving medium. containing reagents as indicated at a concentration of […] tested for their blocking quality.
The following reagents were added to the medium at a concentration of 500 nM to test their blocking efficiency: D3-epga1, D4-epga1, D2-epal1, D3-epal1, D4-epal1, D3-alga1, D3-alga2, D4-alga2, D5-alga2, D6-alga3, Epga-1, Epal-1, Alga-2 and Alga-3. After 30 min incubation at 37° C., growth factor HGF was added to induce migration (HGF 100 ng/ml). Photos of the cells were taken immediately after scratch (Day 1), 24 hours (Day 2) and 48 hours (D3) after induction using a Canon Power Shot G12 digital camera.

Substance | activation of Erk [1] | activation of c-Met [2] | blocking of cell migration [3]
D1alga1: cyclic CD44v6 5mer containing a D-amino acid at position 1 ([dK]RWHE; lactam N-5) | blocks activation of c-Met and Erk | blocks activation of c-Met | –
D3-epga1: cyclic 5 mer, ep/ga cyclisation, D-amino acid at position 3 per naming scheme (FIG. 13) (KR[dW]HE; lactam 1-5) | – | – | efficient in blocking cell migration
cy[εKRWHEα]γ] (K[dR]WHE; lactam 1-C; also: cyclised per cy[εKRWHEα]γ], linkage unclear) [D2-epal1] | – | – | Most efficient blocking of cell migration
cy[αKNRWHEγ] (lactam N-6) [Alga-2] | – | – | Most efficient blocking of cell migration
cy[αKGNRWHEγ] (KGNRW[dH]E; lactam N-7) [D6-alga3, cyclisation via N-terminal amino group of K and side chain carboxyl group of E, H is a D-amino acid] | – | – | Most efficient blocking of cell migration
D2alga1: cyclic CD44v6 5mer containing a D-amino acid at position 2 (K[dR]WHE; lactam N-5) | blocks activation of c-Met and Erk | blocks activation of c-Met | –
